Entries after “also recorded” stand apart in the source; their conditions may differ. Starred links: 1 amine or outer side, 2 acyl side, 3 side chain; linkers in the order of their positions; H or OH if unused. Positions of bridges follow the written chain, without caps; N, C: chain ends. Non-standard residues stand in square brackets, D forms with d. Residues, ends and D or L forms follow the SMILES beside them. Chains are numbered I, II in the order given. Actinocin(9to1) = Cc1c2oc3c(C)ccc(C(=O)[*:1])c3nc-2c(C(=O)[*:2])c(N)c1=O; NMeV = CN[C@H](C(=O)O)C(C)C; Sar = CNCC(=O)O
Legend:
[1] = tested on: ERK1; assay: P-ERK1 western blot, acute hippocampal slices, area CA1; settings: slices treated 1 h; data not shown
[2] = tested on: histone H3 (Lys14); assay: Acetylation of histone H3, acute hippocampal slices, area CA1; settings: for histone H3 acetylation: slices treated 1 h, FSK 50 μM with 100 μM Ro20-1724, 4αP 3 μM, dFSK 50 μM with 100 μM Ro20-1724, U0126 20 μM, TSA 1.65 μM; for histone H3 acetylation / effect of PDA on histone H3 acetylation after pretreatment with MEK inhibitor: PDA 3 μM; for histone H3 acetylation / effect of NMDA on acetylation of histone H3 after pretreatment with MEK inhibitor / effect of FSK on histone H3 acetylation after pretreatment with MEK inhibitor / effect of PDA on histone H3 acetylation after pretreatment with MEK inhibitor: PD98059 50 μM; for effect of NMDA on acetylation of histone H3 after pretreatment with MEK inhibitor / effect of FSK on histone H3 acetylation after pretreatment with MEK inhibitor / effect of PDA on histone H3 acetylation after pretreatment with MEK inhibitor: U0126 20 μM; for effect of NMDA on acetylation of histone H3 after pretreatment with MEK inhibitor: 100 μM NMDA 10 min; for effect of FSK on histone H3 acetylation after pretreatment with MEK inhibitor: FSK 50 μM with 100 μM Ro20-1724
[3] = tested on: ERK2; assay: P-ERK2 western blot, acute hippocampal slices, area CA1; settings: for levels of P-ERK2: slices treated 1 h, FSK 50 μM with 100 μM Ro20-1724, U0126 20 μM, 4αP 3 μM, dFSK 50 μM with 100 μM Ro20-1724, TSA; for levels of P-ERK2 / effect of PDA on P-ERK2 after pretreatment with MEK inhibitor: PDA 3 μM; for levels of P-ERK2 / effect of NMDA on P-ERK2 after pretreatment with MEK inhibitor / effect of FSK on P-ERK2 after pretreatment with MEK inhibitor / effect of PDA on P-ERK2 after pretreatment with MEK inhibitor: PD98059 50 μM; for effect of NMDA on P-ERK2 after pretreatment with MEK inhibitor / effect of FSK on P-ERK2 after pretreatment with MEK inhibitor / effect of PDA on P-ERK2 after pretreatment with MEK inhibitor: U0126 20 μM; for effect of NMDA on P-ERK2 after pretreatment with MEK inhibitor: 100 μM NMDA 10 min; for effect of FSK on P-ERK2 after pretreatment with MEK inhibitor: FSK 50 μM with 100 μM Ro20-1724
[4] = tested on: Schaffer-collateral synapses; settings: previous studies, Nguyen et al., 1994; cited from earlier work
[5] = tested on: histone H4 (Lys5/Lys8/Lys12/Lys16); assay: Acetylation of histone H4, acute hippocampal slices, area CA1; settings: 100 μM NMDA 10 min, with or without U0126 or PD98059 pretreatment
[6] = 100 μM NMDA in Mg++-free ACSF for 10 min

CCCCCCCCCC(=O)O[C@@H]1[C@@H](C)[C@@]2(O)[C@@H](C=C(CO)C[C@@]3(O)C(=O)C(C)=C[C@@H]23)[C@@H]2C(C)(C)[C@]12OC(=O)CCCCCCCCC [4αP, 4-α-phorbol 12,13-didecanoate]
levels of P-ERK1 [1]: no affect | histone H3 acetylation [2]: no effect on H3 acetylation | histone H3 acetylation ([2]; listed as 4 αP): no affect on the acetylation of histone H3 | levels of P-ERK2 [3]: no effect on P-ERK2 | levels of P-ERK2 ([3]; listed as 4 αP): no affect

OC[C@H]1O[C@@H](n2cnc3cc(Cl)c(Cl)cc32)[C@H](O)[C@@H]1O [DRB, 5,6-dichlorobenzimidazole riboside]
basal synaptic transmission [4]: no effect on basal synaptic transmission

CN[C@H](CC(=O)O)C(=O)O [NMDA]
acetylation of histone H4 in area CA1 [5]: no affect on acetylation of histone H4 | acetylation of histone H3 in area CA1 [2, 6]: increased acetylation of histone H3; also recorded: significantly increased | phosphorylation of ERK2 in area CA1 [3, 6]: induced significant increases in P-ERK2; also recorded: significantly increased

COc1cccc(-c2cc(=O)c3ccccc3o2)c1N [PD98059]
effect of NMDA on acetylation of histone H3 after pretreatment with MEK inhibitor [2]: blocked; also recorded: inhibited the affect of NMDA on acetylation of histone H3 | effect of FSK on histone H3 acetylation after pretreatment with MEK inhibitor [2]: blocked; also recorded: inhibited | effect of PDA on histone H3 acetylation after pretreatment with MEK inhibitor [2]: blocked; also recorded: inhibited | histone H3 acetylation [2]: no effect on basal levels of acetylation of histone H3 | effect of NMDA on P-ERK2 after pretreatment with MEK inhibitor [3]: blocked; also recorded: inhibited the affect of NMDA on P-ERK2 | effect of FSK on P-ERK2 after pretreatment with MEK inhibitor [3]: blocked | effect of PDA on P-ERK2 after pretreatment with MEK inhibitor [3]: blocked | levels of P-ERK2 [3]: diminished

CC(=O)O[C@@H]1[C@@H](C)[C@@]2(O)[C@@H](C=C(CO)C[C@]3(O)C(=O)C(C)=C[C@@H]23)[C@@H]2C(C)(C)[C@]12OC(C)=O [PDA, phorbol 12,13-diacetate]
levels of P-ERK1 [1]: significantly increased | histone H3 acetylation [2]: significantly increased acetylation of histone H3 | levels of P-ERK2 [3]: significantly increased; also recorded: significant increases in levels of P-ERK2

N#CC(=C(/N)Sc1ccccc1N)/C(C#N)=C(\N)Sc1ccccc1N [U0126]
effect of NMDA on acetylation of histone H3 after pretreatment with MEK inhibitor [2]: blocked; also recorded: inhibited the affect of NMDA on acetylation of histone H3 | effect of FSK on histone H3 acetylation after pretreatment with MEK inhibitor [2]: blocked; also recorded: inhibited | effect of PDA on histone H3 acetylation after pretreatment with MEK inhibitor [2]: blocked; also recorded: inhibited | histone H3 acetylation [2]: no effect on basal levels of acetylation of histone H3 | effect of NMDA on P-ERK2 after pretreatment with MEK inhibitor [3]: blocked; also recorded: inhibited the affect of NMDA on P-ERK2 | effect of FSK on P-ERK2 after pretreatment with MEK inhibitor [3]: blocked | effect of PDA on P-ERK2 after pretreatment with MEK inhibitor [3]: blocked | levels of P-ERK2 [3]: diminished

Cc1c2oc3c(C)ccc(C(=O)N[C@@H]4C(=O)N[C@H](C(C)C)C(=O)N5CCC[C@H]5C(=O)N(C)CC(=O)N(C)[C@@H](C(C)C)C(=O)O[C@@H]4C)c3nc-2c(C(=O)N[C@@H]2C(=O)N[C@H](C(C)C)C(=O)N3CCC[C@H]3C(=O)N(C)CC(=O)N(C)[C@@H](C(C)C)C(=O)O[C@@H]2C)c(N)c1=O [actinomycin D, Actinomycin D] (I: T[dV]P[Sar][NMeV] / II: T[dV]P[Sar][NMeV]; ester I:1-I:C, II:1-II:C; linker I:N-II:N via Actinocin(9to1))
basal synaptic transmission [4]: no effect on synaptic transmission

C=C[C@@]1(C)CC(=O)[C@@H]2[C@@]3(C)CCCC(C)(C)[C@@H]3[C@H](O)[C@H](OC(C)=O)[C@@]2(C)O1 [dFSK, 1,9 dideoxyforskolin]
levels of P-ERK1 [1]: no affect | histone H3 acetylation [2]: no affect on the acetylation of histone H3; also recorded: no effect on H3 acetylation | levels of P-ERK2 [3]: no affect; also recorded: no effect on P-ERK2
